Data: the supplement of paper PMC10307832

Tests used:
Test in all cases: relative viability (nuclei count vs DMSO), 5 days (fraction); higher = more cells survive
SK-LU-1 = tested on: SK-LU-1
Method in brief: (§1)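 Relative viability divides the nuclei count in treated wells by that in vehicle wells. Lung cancer cell lines were seeded in 1536-well plates, dosed by pin tool the next day, and fixed and stained after 5 days in one step with final 0.05% Triton X-100, 1% formaldehyde and 1 ug/ml Hoechst. Dosing was a single drug or a fixed anchor-drug dose plus five library-drug doses (not always all listed) in √10 steps, and values are medians of duplicate plates imaged at 4×.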

NCI-H1755 = tested on: NCI-H1755
Method in brief: as §1

NCI-H2342 = tested on: NCI-H2342
Method in brief: as §1

NCI-H460 = tested on: NCI-H460
Method in brief: as §1

A-427 = tested on: A-427
Method in brief: as §1

PC-3 [JPC-3] = tested on: PC-3 [JPC-3]
Method in brief: as §1

NCI-H522 = tested on: NCI-H522
Method in brief: as §1

NCI-H358 = tested on: NCI-H358
Method in brief: as §1

NCI-H1975 = tested on: NCI-H1975
Method in brief: as §1

HOP-62 = tested on: HOP-62
Method in brief: as §1

NCI-H1915 = tested on: NCI-H1915
Method in brief: as §1

NCI-H2126 = tested on: NCI-H2126
Method in brief: as §1

NCI-H1792 = tested on: NCI-H1792
Method in brief: as §1

HCC-15 = tested on: HCC-15
Method in brief: as §1

SW 1573 = tested on: SW 1573
Method in brief: as §1

NCI-H1734 = tested on: NCI-H1734
Method in brief: as §1

LC-2-ad = tested on: LC-2-ad
Method in brief: as §1

NCI-H2228 = tested on: NCI-H2228
Method in brief: as §1

NCI-H647 = tested on: NCI-H647
Method in brief: as §1

NCI-H2347 = tested on: NCI-H2347
Method in brief: as §1

LXF-289 = tested on: LXF-289
Method in brief: as §1

RERF-LC-KJ = tested on: RERF-LC-KJ
Method in brief: as §1

LOU-NH91 = tested on: LOU-NH91
Method in brief: as §1

HCC-78 = tested on: HCC-78
Method in brief: as §1

For `CC(C)Oc1cc(Nc2nc(N[C@@H](C)c3ccc(F)cn3)ncc2Cl)n[nH]1` [AZ23] + COc1cccc2cc(-c3nc([C@H]4CC[C@H](C(=O)O)CC4)n4ncnc(N)c34)[nH]c12 [OSI-027] (partner 0.5 µM), the relative viability (SK-LU-1; first compound 0.03162 µM) was 0.403, the relative viability (SK-LU-1; first compound 0.3162 µM) was 0.379 and the relative viability (NCI-H1755; first compound 0.01 µM) was 0.639. It also gave a relative viability (NCI-H1755; first compound 0.03162 µM) of 0.809, a relative viability (NCI-H1755; first compound 0.3162 µM) of 0.771 and a relative viability (NCI-H2342; first compound 0.01 µM) of 0.702. For the same compound, the relative viability (NCI-H2342; first compound 0.03162 µM) was 0.593, the relative viability (NCI-H2342; first compound 0.3162 µM) was 0.569 and the relative viability (NCI-H460; first compound 0.01 µM) was 0.382. The relative viability (NCI-H460; first compound 0.03162 µM) was 0.657, the relative viability (NCI-H460; first compound 0.3162 µM) was 0.885 and the relative viability (A-427; first compound 0.01 µM) was 0.37. The relative viability (A-427; first compound 0.03162 µM) was 0.448, the relative viability (A-427; first compound 0.3162 µM) was 0.34 and the relative viability (PC-3 [JPC-3]; first compound 0.01 µM) was 0.857. The relative viability (PC-3 [JPC-3]; first compound 0.03162 µM) was 0.71, the relative viability (PC-3 [JPC-3]; first compound 0.3162 µM) was 0.742 and the relative viability (NCI-H522; first compound 0.01 µM) was 0.639. For the same compound, the relative viability (NCI-H522; first compound 0.03162 µM) was 0.711, the relative viability (NCI-H522; first compound 0.3162 µM) was 0.563 and the relative viability (NCI-H358; first compound 0.01 µM) was 0.682. It also gave a relative viability (NCI-H358; first compound 0.03162 µM) of 0.725, a relative viability (NCI-H358; first compound 0.3162 µM) of 0.805 and a relative viability (NCI-H1975; first compound 0.01 µM) of 0.874. It also gave a relative viability (NCI-H1975; first compound 0.03162 µM) of 0.812, a relative viability (NCI-H1975; first compound 0.3162 µM) of 0.727 and a relative viability (HOP-62; first compound 0.01 µM) of 0.853. For the same compound, the relative viability (HOP-62; first compound 0.03162 µM) was 0.924, the relative viability (HOP-62; first compound 0.3162 µM) was 0.973 and the relative viability (NCI-H1915; first compound 0.01 µM) was 0.664. It also gave a relative viability (NCI-H1915; first compound 0.03162 µM) of 0.635, a relative viability (NCI-H1915; first compound 0.3162 µM) of 0.65 and a relative viability (NCI-H2126; first compound 0.01 µM) of 0.692. For the same compound, the relative viability (NCI-H2126; first compound 0.03162 µM) was 0.735, the relative viability (NCI-H2126; first compound 0.3162 µM) was 0.756 and the relative viability (NCI-H1792; first compound 0.01 µM) was 0.752. For the same compound, the relative viability (NCI-H1792; first compound 0.03162 µM) was 0.782, the relative viability (NCI-H1792; first compound 0.3162 µM) was 0.841 and the relative viability (HCC-15; first compound 0.01 µM) was 0.687. The relative viability (HCC-15; first compound 0.03162 µM) was 0.665, the relative viability (HCC-15; first compound 0.3162 µM) was 0.684 and the relative viability (SW 1573; first compound 0.01 µM) was 0.925. The relative viability (SW 1573; first compound 0.03162 µM) was 0.7, the relative viability (SW 1573; first compound 0.3162 µM) was 0.649 and the relative viability (NCI-H1734; first compound 0.01 µM) was 0.628. The relative viability (NCI-H1734; first compound 0.03162 µM) was 0.62, the relative viability (NCI-H1734; first compound 0.3162 µM) was 0.588 and the relative viability (LC-2-ad; first compound 0.01 µM) was 0.953. The relative viability (LC-2-ad; first compound 0.03162 µM) was 0.802, the relative viability (LC-2-ad; first compound 0.3162 µM) was 0.672 and the relative viability (NCI-H2228; first compound 0.01 µM) was 0.785. For the same compound, the relative viability (NCI-H2228; first compound 0.03162 µM) was 0.776, the relative viability (NCI-H2228; first compound 0.3162 µM) was 0.671 and the relative viability (NCI-H647; first compound 0.01 µM) was 0.765. The relative viability (NCI-H647; first compound 0.03162 µM) was 0.745, the relative viability (NCI-H647; first compound 0.3162 µM) was 0.789 and the relative viability (NCI-H2347; first compound 0.01 µM) was 0.298. It also gave a relative viability (NCI-H2347; first compound 0.03162 µM) of 0.262, a relative viability (NCI-H2347; first compound 0.3162 µM) of 0.389 and a relative viability (LXF-289; first compound 0.01 µM) of 0.862. It also gave a relative viability (LXF-289; first compound 0.03162 µM) of 0.857, a relative viability (LXF-289; first compound 0.3162 µM) of 0.96 and a relative viability (RERF-LC-KJ; first compound 0.01 µM) of 0.592. The relative viability (RERF-LC-KJ; first compound 0.03162 µM) was 0.623, the relative viability (RERF-LC-KJ; first compound 0.3162 µM) was 0.616 and the relative viability (LOU-NH91; first compound 0.01 µM) was 0.692. The relative viability (LOU-NH91; first compound 0.03162 µM) was 0.753, the relative viability (LOU-NH91; first compound 0.3162 µM) was 0.704 and the relative viability (HCC-78; first compound 0.01 µM) was 0.52. For the same compound, the relative viability (HCC-78; first compound 0.03162 µM) was 0.349 and the relative viability (HCC-78; first compound 0.3162 µM) was 0.322.
